Results published in patent US10875855B2 (priority 2011, dated 2020).
Where two headings read alike, the source gives them in different places.

What was measured:
[1] = tested on: influenza A virus (A/PR/8/34); experiment: MDCK cytopathic effect (CPE) cell protection assay, ATP detection; format: cell-based
[2] = tested on: influenza A virus (A/PR/8/34); experiment: microbe, parasite or virus in culture; format: cell-based
[3] = Influenza A virus, PR/8, MDCK, 72 h, Table 1, MDCK cells, A/PR/8/34, 72 hours, 50% cell protection, mean all, class symbol, read-out: MDCK IC50
[4] = Influenza A virus, PR/8, Table 1, mean all, class symbol, read-out: bDNA EC99
[5] = Influenza A virus, PR/8, Table 1, viral RNA 50% of control wells, mean all, class symbol, read-out: bDNA EC50
[6] = Table 1, MDCK cells, A/PR/8/34, 72 hours, 50% cell protection, mean all, class symbol, read-out: MDCK IC50
[7] = Table 1, viral RNA 50% of control wells, mean all, class symbol, read-out: bDNA EC50
[8] = Table 1, mean all, class symbol

SMILES	IC50 [1, 3] [µM]	EC99 [2, 4] [µM]	EC50 [2, 5] [µM]	further results
CC(C)(C)[C@@H](CS(=O)(=O)NCC(F)(F)F)Nc1nc(-c2c[nH]c3ncc(F)cc23)ncc1F [Compound 58, (S)-2-(5-fluoro-2-(5-fluoro-1H-pyrrolo[2,3-b]pyridin-3-yl)pyrimidin-4-ylamino)-3,3-dimethyl-N-(2,2,2-trifluoroethyl)butane-1-sulfonamide]	< 0.3	< 0.3	< 0.3	
CC(C)(C)[C@@H](/C=C/C(=O)O)Nc1nc(-c2c[nH]c3ncc(F)cc23)ncc1F [Compound 59, (R,E)-4-((5-fluoro-2-(5-fluoro-1H-pyrrolo[2,3-b]pyridin-3-yl)pyrimidin-4-yl)amino)-5,5-dimethylhex-2-enoic acid]	< 0.3	0.3 to 3.3	< 0.3	
CC(C)(C)[C@@H](CS(=O)(=O)CC(=O)O)Nc1nc(-c2c[nH]c3ncc(F)cc23)ncc1F [Compound 60, (S)-2-(2-(5-fluoro-2-(5-fluoro-1H-pyrrolo[2,3-b]pyridin-3-yl)pyrimidin-4-ylamino)-3,3-dimethylbutylsulfonyl)ethanoic acid]	< 0.3	> 3.3	0.3 to 3.3	
CC(C)(C)[C@@H](CS(=O)(=O)CC(=O)O)Nc1nc(-c2c[nH]c3ncc(Cl)cc23)ncc1F [Compound 61, (S)-2-(2-(2-(5-chloro-1H-pyrrolo[2,3-b]pyridin-3-yl)-5-fluoropyrimidin-4-ylamino)-3,3-dimethylbutylsulfonyl)ethanoic acid]	< 0.3	0.3 to 3.3	< 0.3	
CC1(C(CC(=O)O)Nc2nc(-c3c[nH]c4ncc(F)cc34)ncc2F)CCC1 (stereo not shown) [Compound 63]	< 0.3	< 0.3	< 0.3	
CC(C)(C)[C@@H](CC(O)C(F)(F)F)Nc1nc(-c2c[nH]c3ncc(F)cc23)ncc1F (stereo partly drawn) [Compound 66, (4R)-1,1,1-trifluoro-4-((5-fluoro-2-(5-fluoro-1H-pyrrolo[2,3-b]pyridin-3-yl)pyrimidin-4-yl)amino)-5,5-dimethylhexan-2-ol]	< 0.3	0.3 to 3.3	< 0.3	
CC(C)(C)[C@@H](CC(O)C(F)(F)F)Nc1nc(-c2c[nH]c3ncc(F)cc23)ncc1F (stereo partly drawn) [Compound 67, (4R)-1,1,1-trifluoro-4-((5-fluoro-2-(5-fluoro-1H-pyrrolo[2,3-b]pyridin-3-yl)pyrimidin-4-yl)amino)-5,5-dimethylhexan-2-ol]				IC50 [1, 6]: < 0.3 µM; EC50 [2, 7]: < 0.3 µM
CC(C)(C)[C@@H](Cn1cc(CO)nn1)Nc1nc(-c2c[nH]c3ncc(F)cc23)ncc1F [Compound 68, (S)-(1-(2-((5-fluoro-2-(5-fluoro-1H-pyrrolo[2,3-b]pyridin-3-yl)pyrimidin-4-yl)amino)-3,3-dimethylbutyl)-1H-1,2,3-triazol-4-yl)methanol]	0.3 to 3.3	0.3 to 3.3	< 0.3	
CC(C)(C)[C@@H](CCP(=O)(O)O)Nc1nc(-c2c[nH]c3ncc(F)cc23)ncc1F [Compound 69, (R)-(3-((5-fluoro-2-(5-fluoro-1H-pyrrolo[2,3-b]pyridin-3-yl)pyrimidin-4-yl)amino)-4,4-dimethylpentyl)phosphonic acid]	0.3 to 3.3	> 3.3	0.3 to 3.3	IC50 ([1]; Influenza A virus, PR/8, MDCK, exemplary data, MDCK cell protection, read-out: IC50): 2.31 µM; EC50 ([2]; Influenza A virus, PR/8, exemplary data, bDNA, read-out: EC50): 0.8 µM; EC99 ([2]; exemplary data, bDNA): 8.4 µM
CC(C)(C)[C@@H](CC(O)CO)Nc1nc(-c2c[nH]c3ncc(F)cc23)ncc1F (stereo partly drawn) [Compound 70, (4R)-4-((5-fluoro-2-(5-fluoro-1H-pyrrolo[2,3-b]pyridin-3-yl)pyrimidin-4-yl)amino)-5,5-dimethylhexane-1,2-diol]	< 0.3	0.3 to 3.3	< 0.3	
CC(C)(C)[C@@H](CC(O)CO)Nc1nc(-c2c[nH]c3ncc(F)cc23)ncc1F (stereo partly drawn) [Compound 71, (4R)-4-((5-fluoro-2-(5-fluoro-1H-pyrrolo[2,3-b]pyridin-3-yl)pyrimidin-4-yl)amino)-5,5-dimethylhexane-1,2-diol]				IC50 [1, 6]: < 0.3 µM; bDNA EC99 (uM) [2, 8]: A (EC99 (mean all)<0.3 μM); EC50 [2, 7]: < 0.3 µM
CC(O)C[C@@H](Nc1nc(-c2c[nH]c3ncc(F)cc23)ncc1F)C(C)(C)C (stereo partly drawn) [Compound 73, (4R)-4-((5-Fluoro-2-(5-fluoro-1H-pyrrolo[2,3-b]pyridin-3-yl)pyrimidin-4-yl)amino)-5,5-dimethylhexan-2-ol]	> 3.3		0.3 to 3.3	
CC1(C(CC(=O)O)Nc2nc(-c3c[nH]c4ncc(F)cc34)ncc2F)CC1 (stereo not shown) [Compound 74]	0.3 to 3.3	0.3 to 3.3	0.3 to 3.3	
CC1(C(CC(=O)O)Nc2nc(-c3c[nH]c4ncc(F)cc34)ncc2F)CCCCC1 (stereo not shown) [Compound 78, 3-(5-fluoro-2-(5-fluoro-1H-pyrrolo[2,3-b]pyridin-3-yl)pyrimidin-4-ylamino)-3-(1-methylcyclohexyl)propanoic acid]	< 0.3	0.3 to 3.3	< 0.3	
CCOC(=O)CC(Nc1nc(-c2c[nH]c3ncc(Cl)cc23)ncc1F)C1(C)CCCCC1 (stereo not shown) [Compound 82]	> 3.3	> 3.3	> 3.3	
CC1([C@@H](CC(=O)O)Nc2nc(-c3c[nH]c4ncc(F)cc34)ncc2F)CCC1 [Compound 87, 3-((5-fluoro-2-(5-fluoro-1H-pyrrolo[2,3-b]pyridin-3-yl)pyrimidin-4-yl)amino)-3-(1-methylcyclobutyl)propanoic acid]	< 0.3	< 0.3	< 0.3	
CC1(C(CC(=O)O)Nc2nc(-c3c[nH]c4ncc(F)cc34)ncc2F)CCC1 (stereo not shown) [Compound 88, 3-((5-fluoro-2-(5-fluoro-1H-pyrrolo[2,3-b]pyridin-3-yl)pyrimidin-4-yl)amino)-3-(1-methylcyclobutyl)propanoic acid]				IC50 [1, 6]: < 0.3 µM; bDNA EC99 (uM) [2, 8]: B (0.3 μM≤EC99 (mean all)≤3.3 μM); EC50 [2, 7]: < 0.3 µM
CC(C)(C)[C@@H](CC(=O)O)Nc1nc(-c2c[nH]c3ncc(C#N)cc23)ncc1F [Compound 89, (R)-3-((2-(5-cyano-1H-pyrrolo[2,3-b]pyridin-3-yl)-5-fluoropyrimidin-4-yl)amino)-4,4-dimethylpentanoic acid]	< 0.3	0.3 to 3.3	< 0.3	
Cc1cnc2[nH]cc(-c3ncc(F)c(N[C@H](CC(=O)O)C(C)(C)C)n3)c2c1 [Compound 90, (R)-3-((5-fluoro-2-(5-methyl-1H-pyrrolo[2,3-b]pyridin-3-yl)pyrimidin-4-yl)amino)-4,4-dimethylpentanoic acid]	< 0.3	0.3 to 3.3	< 0.3	
CC1([C@@H](CC(=O)O)Nc2nc(-c3c[nH]c4ncc(F)cc34)ncc2F)CC1 [Compound 91, (R)-3-((5-fluoro-2-(5-fluoro-1H-pyrrolo[2,3-b]pyridin-3-yl)pyrimidin-4-yl)amino)-3-(1-methylcyclopropyl)propanoic acid]	< 0.3		< 0.3	bDNA EC99 (uM) [2, 8]: B (0.3 μM≤EC99 (mean all)≤3.3 μM)
CC1([C@@H](CC(=O)O)Nc2nc(-c3c[nH]c4ncc(F)cc34)ncc2F)CC1 [Compound 92]				IC50 [1, 6]: 0.3 to 3.3 µM; bDNA EC99 (uM) [2, 8]: C (EC99 (mean all)>3.3 μM); EC50 [2, 7]: 0.3 to 3.3 µM
COC(=O)C[C@@H](Nc1nc(-c2n[nH]c3ncc(Cl)cc23)ncc1F)C(C)(C)C [Compound 96]	< 0.3	0.3 to 3.3	< 0.3	
